Consider 17 molecules from patent US8865623B2, “Herbicidally active cyclic diones and derivatives thereof, processes for their preparation, compositions, and method of controlling weeds” (Syngenta Limited, priority 2009, dated 2014).

What all share (assay type): in vivo
Assay [1] concerns Alopecurus myosuroides (ALOMY). Nature of the assay: Post-emergence herbicidal activity, glasshouse pot test. The note with it: Alopecurus myosuroides, 312 h, rate 250 g/ha, evaluated after 13 days, glasshouse, read-out: Post-emergence activity ALOMY (100=total damage to plant; 0=no damage to plant). The essentials: (§1)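 Pot-grown plants in standard soil received a spray one day post-sowing (pre-emergence) or after eight days' growth (post-emergence). Scoring took place 13 days later on a 0–100 scale, 100 meaning total damage.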

The test system of assay [2] is Lolium perenne (LOLPE). The description is as above. The note with it: Lolium perenne, 312 h, rate 250 g/ha, evaluated after 13 days, glasshouse, read-out: Post-emergence activity LOLPE (100=total damage to plant; 0=no damage to plant). The essentials: as §1
Assay [3] relates to Echinochloa crus-galli (ECHCG). The assay is described as above. The note with it: Echinochloa crus-galli, 312 h, rate 250 g/ha, evaluated after 13 days, glasshouse, read-out: Post-emergence activity ECHCG (100=total damage to plant; 0=no damage to plant). The essentials: as §1
The test system of assay [4] is Avena fatua (AVEFA). The description is as above. The note with it: Avena fatua, 312 h, rate 250 g/ha, evaluated after 13 days, glasshouse, read-out: Post-emergence activity AVEFA (100=total damage to plant; 0=no damage to plant). The essentials:
as §1

For assay [5], the system named is Alopecurus myosuroides (ALOMY). Description: Pre-emergence herbicidal activity, glasshouse pot test. The note with it: Alopecurus myosuroides, 312 h; Rate 250 g/ha; pre-emergence spray; evaluated after 13 days; read-out: Pre-emergence activity ALOMY (100=total damage to plant; 0=no damage to plant). In outline:
as §1

The test system of assay [6] is Lolium perenne (LOLPE). Described as above. The note with it: Lolium perenne, 312 h; Rate 250 g/ha; pre-emergence spray; evaluated after 13 days; read-out: Pre-emergence activity LOLPE (100=total damage to plant; 0=no damage to plant). In outline: as §1
In assay [7] the test system is Echinochloa crus-galli (ECHCG). Described as above. The note with it: Echinochloa crus-galli, 312 h; Rate 250 g/ha; pre-emergence spray; evaluated after 13 days; read-out: Pre-emergence activity ECHCG (100=total damage to plant; 0=no damage to plant). In outline: as §1
Assay [8] concerns Avena fatua (AVEFA). The assay is described as above. The note with it: Avena fatua, 312 h; Rate 250 g/ha; pre-emergence spray; evaluated after 13 days; read-out: Pre-emergence activity AVEFA (100=total damage to plant; 0=no damage to plant). The essentials: as §1

For `CCc1ccc(Oc2ccc(Br)c(Cl)c2)cc1C1=C(O)[C@@H]2CC[C@](C)(C1=O)C2(C)C` [Example A-241], the pest or weed control at 250 g/ha was found to be 40% in assay [1]; 60% in the assay on Lolium perenne (LOLPE) [2]; 90% in assay [3]; 70% in the assay with Avena fatua (AVEFA) [4]; 30% in assay [5]; 70% in the assay on Lolium perenne (LOLPE) [6]. In addition, the figures for the pest or weed control at 250 g/ha (in assay [7]; with Avena fatua (AVEFA) [8]) were 80% and 0%, respectively.

For `CCc1ccc(Oc2ccc(Br)cc2Cl)cc1C1=C(O)[C@H]2CC[C@H](C2)C1=O` [Example A-244], the pest or weed control at 250 g/ha in assay [1] came out at 60%; in the assay on Lolium perenne (LOLPE) [2], 80%; in assay [3] it was 90%; with Avena fatua (AVEFA) [4], 70%; in assay [5], 20%; with Lolium perenne (LOLPE) [6], 70%. Also, the pest or weed control at 250 g/ha in assay [7] was found to be 90%; with Avena fatua (AVEFA) [8] it was 0%.

As to `CCc1ccc(Oc2cccc(Br)c2)cc1C1=C(O)[C@H]2CC[C@H](C2)C1=O` [Example A-245], the pest or weed control at 250 g/ha in assay [1] came to 0%; with Lolium perenne (LOLPE) [2] it was 20%; in assay [3], 80%; in the assay with Avena fatua (AVEFA) [4], 10%; in assay [5], 0%; in the assay on Lolium perenne (LOLPE) [6] it was 50%. Further, the values for the pest or weed control at 250 g/ha (in assay [7]; in the assay with Avena fatua (AVEFA) [8]) were 80% and 0%, respectively.

`CCc1ccc(Oc2ccc(F)c(Cl)c2)cc1C1=C(O)[C@H]2CC[C@H](C2)C1=O` [Example A-246]: the pest or weed control at 250 g/ha in assay [1] is 50%; in the assay on Lolium perenne (LOLPE) [2] it was 20%; in assay [3], 100%; with Avena fatua (AVEFA) [4], 60%; in assay [5], 70%; in the assay with Lolium perenne (LOLPE) [6], 60%. Also, the pest or weed control at 250 g/ha amounted to 100% in assay [7] and 50% in the assay on Avena fatua (AVEFA) [8].

For `CCc1ccc(Oc2ccc(Br)c(Cl)c2)cc1C1=C(O)[C@H]2CC[C@H](C2)C1=O` [Example A-247], the pest or weed control at 250 g/ha in assay [1] stood at 90%; with Lolium perenne (LOLPE) [2], 100%; in assay [3], 100%; with Avena fatua (AVEFA) [4], 100%; in assay [5] it was 90%; in the assay on Lolium perenne (LOLPE) [6], 90%. For the same molecule, the pest or weed control at 250 g/ha in assay [7] came to 100%; with Avena fatua (AVEFA) [8] it was 50%.

Regarding `CCc1ccc(Oc2ccc(OC(F)(F)F)cc2)cc1C1=C(O)[C@H]2CC[C@H](C2)C1=O` [Example A-248], the pest or weed control at 250 g/ha in assay [1] is 100%; with Lolium perenne (LOLPE) [2] it was 100%; in assay [3] it was 100%; in the assay with Avena fatua (AVEFA) [4] it was 100%; in assay [5], 90%; with Lolium perenne (LOLPE) [6], 100%. Besides, the pest or weed control at 250 g/ha came out at 100% in assay [7] and 80% with Avena fatua (AVEFA) [8].

As to `CCc1ccc(Oc2ccc(Cl)c(F)c2)cc1C1=C(O)[C@H]2CC[C@H](C2)C1=O` [Example A-249], the pest or weed control at 250 g/ha in assay [1] was 90%; in the assay with Lolium perenne (LOLPE) [2], 70%; in assay [3], 100%; with Avena fatua (AVEFA) [4], 100%; in assay [5], 60%; in the assay on Lolium perenne (LOLPE) [6], 90%. For the same molecule, the pest or weed control at 250 g/ha in assay [7] was determined as 90%; in the assay on Avena fatua (AVEFA) [8] it was 60%.

For the molecule `CCc1ccc(Oc2ccc(Br)cc2F)cc1C1=C(O)[C@H]2CC[C@H](C2)C1=O` [Example A-250], the pest or weed control at 250 g/ha in assay [1] was 90%; in the assay on Lolium perenne (LOLPE) [2], 80%; in assay [3], 100%; in the assay with Avena fatua (AVEFA) [4], 80%; in assay [5], 80%; with Lolium perenne (LOLPE) [6] it was 80%. Further, the pest or weed control at 250 g/ha in assay [7] amounted to 90%; in the assay with Avena fatua (AVEFA) [8], 50%.

`CCc1ccc(Oc2cc(Cl)c3ccccc3n2)cc1C1=C(O)C(C)(C)OC(C)(C)C1=O` [Example A-251]: the pest or weed control at 250 g/ha in assay [1] came out at 80%; in the assay with Lolium perenne (LOLPE) [2], 0%; in assay [3] it was 100%; in the assay with Avena fatua (AVEFA) [4], 30%; in assay [5], 40%; in the assay with Lolium perenne (LOLPE) [6], 80%. Besides, the pest or weed control at 250 g/ha in assay [7] stood at 100%; in the assay with Avena fatua (AVEFA) [8] it was 20%.

On to `CCc1ccc(Oc2nc3ccccc3cc2C)cc1C1=C(O)C(C)(C)OC(C)(C)C1=O` [Example A-253], for which the pest or weed control at 250 g/ha in assay [1] came out at 50%; in the assay on Lolium perenne (LOLPE) [2], 70%; in assay [3] it was 70%; in the assay with Avena fatua (AVEFA) [4], 40%; in assay [5], 70%; in the assay with Lolium perenne (LOLPE) [6], 100%. Moreover, the pest or weed control at 250 g/ha came to 80% in assay [7] and 30% with Avena fatua (AVEFA) [8].

Take `CCc1ccc(Oc2cnc3cc(Cl)ccc3n2)cc1C1=C(O)[C@H]2CC[C@H](C2)C1=O` [Example A-255]: the pest or weed control at 250 g/ha (in assay [1]; in the assay with Lolium perenne (LOLPE) [2]; in assay [3]; with Avena fatua (AVEFA) [4]; in assay [5]; in the assay on Lolium perenne (LOLPE) [6]) was 100% throughout. The pest or weed control at 250 g/ha (in assay [7]; in the assay with Avena fatua (AVEFA) [8]) was 100% each time.

In the case of `CCc1ccc(Oc2ccc3cc(Br)ccc3n2)cc1C1=C(O)C(C)(C)OC(C)(C)C1=O` [Example A-256], the pest or weed control at 250 g/ha in assay [1] was determined as 90%; in the assay on Lolium perenne (LOLPE) [2], 90%; in assay [3] it was 90%; in the assay on Avena fatua (AVEFA) [4], 80%; in assay [5], 50%; with Lolium perenne (LOLPE) [6] it was 80%. Moreover, the pest or weed control at 250 g/ha in assay [7] is 80%; with Avena fatua (AVEFA) [8], 20%.

As for `CCc1ccc(Oc2ccc(F)c(Cl)c2)cc1C1=C(O)CC(C)(C)CC1=O` [Example A-257], the pest or weed control at 250 g/ha in assay [1] was 30%; in the assay on Lolium perenne (LOLPE) [2], 50%; in assay [3] it was 80%; in the assay on Avena fatua (AVEFA) [4] it was 0%; in assay [5] it was 0%; with Lolium perenne (LOLPE) [6], 20%. Also, the values for the pest or weed control at 250 g/ha (in assay [7]; in the assay with Avena fatua (AVEFA) [8]) were 40% and 0%, respectively.

As to `CCc1ccc(Oc2ccc(Br)c(Cl)c2)cc1C1=C(O)CC(C)(C)CC1=O` [Example A-258], the pest or weed control at 250 g/ha in assay [1] came to 70%; in the assay with Lolium perenne (LOLPE) [2], 80%; in assay [3], 100%; with Avena fatua (AVEFA) [4] it was 70%; in assay [5] it was 30%; with Lolium perenne (LOLPE) [6], 30%. Further, the pest or weed control at 250 g/ha in assay [7] was determined as 70%; in the assay with Avena fatua (AVEFA) [8], 10%.

For the molecule `CCc1ccc(Oc2ccc3cc(Cl)ccc3n2)cc1C1=C(O)[C@H]2CC[C@H](C2)C1=O` [Example A-260], the pest or weed control at 250 g/ha in assay [1] was determined as 90%; with Lolium perenne (LOLPE) [2] it was 80%; in assay [3], 90%; in the assay with Avena fatua (AVEFA) [4], 100%; in assay [5], 80%; in the assay with Lolium perenne (LOLPE) [6], 90%. For the same molecule, the pest or weed control at 250 g/ha in assay [7] was found to be 90%; in the assay on Avena fatua (AVEFA) [8], 0%.

On to `CCc1ccc(Oc2ccc3cc(Cl)ccc3n2)cc1C1=C(O)CC(C)(C)CC1=O` [Example A-261], for which the pest or weed control at 250 g/ha stood at 90% in assay [1]; 100% with Lolium perenne (LOLPE) [2]; 100% in assay [3]; 100% in the assay with Avena fatua (AVEFA) [4]; 80% in assay [5]; 80% in the assay with Lolium perenne (LOLPE) [6]. The pest or weed control at 250 g/ha in assay [7] is 90%; in the assay on Avena fatua (AVEFA) [8], 50%.

As for `CC1(C)OC(C)(C)C(O)=C(c2cc(Oc3ccc(Cl)cc3Cl)ccc2C2CC2)C1=O` [Example A-262], the pest or weed control at 250 g/ha in assay [1] was 80%; with Lolium perenne (LOLPE) [2], 60%; in assay [3], 90%; with Avena fatua (AVEFA) [4], 50%; in assay [5] it was 30%; with Lolium perenne (LOLPE) [6], 70%. Besides, the pest or weed control at 250 g/ha in assay [7] stood at 70%; in the assay with Avena fatua (AVEFA) [8], 0%.
